Assay [1] deals with TMPRSS2–SPIKE interaction (His-TMPRSS2 and SPIKE-FLAG) (Severe acute respiratory syndrome coronavirus 2, UniProt P0DTC2). In words: biochemical. The assay is classed as binding, SARS-CoV-2.
Assay [2] has as its target TMPRSS2–SPIKE interaction (SmBiT-TMPRSS2 and SPIKE-LgBiT) (Severe acute respiratory syndrome coronavirus 2, UniProt P0DTC2). The assay is classed as cell-based, SARS-CoV-2.
For a further assay, the system named is SPIKE protein. The following applies: ref Feng et al., 2020; cited from earlier work.

Values joined by “and” are separate entries in the source; they are usually repeats but may differ in a detail not shown here. Equal entries are not always repeated. Where two headings read alike, the source gives them in different places.

The term IC50 denotes the concentration that gives 50% inhibition. For `N#C/C(=C/c1ccc(O)c(O)c1)C(=O)NCc1ccccc1` [AG-490], the concentration for half-maximal inhibition (IC50) in assay [1] (read-out: IC50, TR-FRET signal) is roughly 19 µM. Turning to `O=C(/C=C/c1ccc(O)c(O)c1)OCCc1ccccc1` [CAPE, caffeic acid phenethyl ester], the IC50 in assay [1] (IC50, TR-FRET signal) was 13.8 µM. Also, the “Inhibition of NanoBiT signal” value in assay [2] was “dose-dependent inhibition”. In the case of `CC(C)c1onc(-c2c(Cl)cccc2Cl)c1COc1ccc(/C=C/c2cccc(C(=O)O)c2)c(Cl)c1` [GW4064], in assay [1] (read-out: IC50, TR-FRET signal), the IC50 is roughly 7 µM. `Cc1cc(C(C#N)c2ccc(Cl)cc2)c(Cl)cc1NC(=O)c1cc(I)cc(I)c1O` (stereo not drawn) [closantel] yielded an IC50 in assay [1] (IC50, TR-FRET signal) of roughly 17 µM. `CC1=NN(c2ccc(C)c(C)c2)C(=O)/C1=N\Nc1cccc(-c2cccc(C(=O)O)c2)c1O` [eltrombopag olamine]: the “Binding to the SPIKE protein” value in the assay on SPIKE protein was “bind to the SPIKE protein”. Further, in assay [1] (IC50, TR-FRET signal), the IC50 was ~20 µM and 20.6 µM.

Take `Cc1cc2c(C(C)C)c(O)c(O)c(C=O)c2c(O)c1-c1c(C)cc2c(C(C)C)c(O)c(O)c(C=O)c2c1O` [gossypol acetate]: in assay [1] (IC50, TR-FRET signal), the 50% inhibitory concentration (IC50) stood at 0.69 µM. For the same compound, the “Inhibition of NanoBiT signal” value in assay [2] is recorded as “dose-dependent inhibition”.

Source of the values: paper PMC10399917 (Journal of Molecular Cell Biology, 2023).
